Measurements reported in ChEMBL document CHEMBL1155382, “Bisleuconothine A, an eburnane-aspidosperma bisindole alkaloid from Leuconotis griffithii” (Bioorg Med Chem Lett, 2010).

Experiments:
[1] = test system: HL-60; assay: Inhibition of cell growth in human HL60 cells; assay type: functional, cell-based
[2] = test system: HCT-116; assay: Inhibition of cell growth in human HCT116 cells; assay type: functional, cell-based
[3] = test system: MCF7; assay: Inhibition of cell growth in human MCF7 cells; assay type: functional, cell-based
[4] = test system: A549; assay: Inhibition of cell growth in human A549 cells; assay type: functional, cell-based
[5] = test system: HCT-116; assay: Cell cycle arrest in human HCT116 cells assessed as accumulation at G1 phase at 5 uM after 24 hrs; assay type: functional
[6] = test system: HCT-116; assay: Cell cycle arrest in human HCT116 cells assessed as accumulation at G1 phase at 10 uM after 24 hrs; assay type: functional
[7] = test system: HCT-116; assay: Cell cycle arrest in human HCT116 cells assessed as accumulation at G1 phase at 20 uM after 24 hrs; assay type: functional

IC50 [1]: 11 µM
IC50 [2]: 5.7 µM
IC50 [3]: 9.2 µM
IC50 [4]: 7 µM
Structure (SMILES): CC[C@@]12CCCN3CCc4c(n(c5ccccc45)[C@H](c4ccc(O)c5c4N[C@@H]4CC[C@@]6(CC)CCCN7CC[C@@]54[C@H]76)C1)[C@H]32 [BISLEUCONOTHINE A]
Activity [5]: 72%
Activity [6]: 75.1%
Activity [7]: 79.5%
